Source: patent US11046753B2, “Antibody composition and buffer system therefor” (INNOVA BIOSCIENCES LTD, priority 2013, dated 2021)
“Also recorded” adds a separate entry of the source.

Experiments:
[1] = Carbodiimide (EDC)-mediated conjugation of goat anti-rabbit IgG to carboxylated gold nanoparticles in presence of additive, read by lateral flow assay; details: pH 5
Experimental: Molecules were tested initially at pH 5 in EDC-mediated reactions with carboxylated gold particles (InnovaCoat GOLD, Innova Biosciences). Potentially interesting molecules from this screening exercise were further evaluated in NHS ester reactions, isothiocyanate reactions and thiolation reactions involving iminothiolane. All of these reactions are widely used in the antibody conjugation field and all would be expected to suffer from interference in the presence of glycine.
Lateral flow test strips (4 mm wide) were prepared from nitrocellulose membrane (Millipore Hi Flow plus 90) striped with goat anti-rabbit IgG (test line) and biotin-BSA (control line). Strips were housed in plastic cartridges and samples of gold conjugate (80 ul) were added to the sample pad. Cartridges were allowed to stand for 30 min and then read using a ESE-Quant GOLD reader—QIAGEN. Each sample was spiked with a fixed amount of streptavidin-gold (Innova biosciences—Product code: 250-0200), which binds to the control line, to check that each test strip had run correctly and that test line data was valid.
10 μg of goat anti-rabbit IgG (GAR) was used per ml of coated 40 nm nanoparticles with carboxyl functionality (InnovaCoat GOLD, Innova Biosciences) at […] in the presence of additives at 50 mM final concentration. Typically reactions were set up with the following additions: 40 μl of 40 nm InnovaCoat (carboxylated) gold nanopartcles, were incubated 5 minutes with 4 μl 0.1 mg/ml GAR, 20 μl water, and 80 μl of 100 mM MES buffer containing 100 mM of additive, pH 5.0. Next, 16 μl of 1 mM EDC was added and after 10 min incubation at 22° C., 20 μl of 10×TBS/1% Tween20 and 20 μl of water was added to give 2 OD conjugate.
Gold conjugates were mixed when required with rabbit IgG ((final concentration 50 ng/ml) at 22° C. Conjugates were 0.2 OD final concentration (i.e. 1/10 dilution from stock conjugates). Samples were run in triplicate on lateral flow test strips as described in Example 1.

[2] = NHS ester (fluorescein) conjugation of rabbit IgG in presence of additive, dye to protein ratio; details: 50 mM additive, sodium phosphate pH 8.0
Experimental: Conjugates were desalted on PD10 columns equilibrated in TBS buffer and absorbance values of the eluted solutions were determined at 280 nm and 495 nm. The ratio of moles dye to moles of protein for antibody dye conjugates in the presence of various additives is shown in FIG. 4.

[3] = Isothiocyanate (FITC) conjugation of rabbit IgG in presence of additive, dye to protein ratio; details: 50 mM additive, CHES pH 9.0
Experimental: Conjugates were desalted on PD10 columns (GE Healthcare) in TBS buffer and the absorbance values of the eluted solutions were determined at 280 nm and 495 nm. The ratio of moles dye to moles of protein for antibody dye conjugates in the presence of various additives is shown in FIG. 3.

[4] = Lightning-Link fluorescein conjugation of goat anti-rabbit IgG in presence of additive, fluorescence assay; details: 50 mM additive
Experimental: Black 96-well plates (Greiner Bio-One (code 655077)) were incubated with 50 ul rabbit IgG (1 ug/well) overnight at 4° C. The plates were blocked with TBS/0.1% BSA for 1 hour at room temperature and washed five times with TBS (wash buffer). Fluorescent antibody conjugates were serially diluted in TBS/0.1% BSA and 50 ul aliquots were added to wells in triplicate. After incubation at room temperature for 1 hour, the plate was washed five times and fluorescence emission was read in using a Tecan Infinite M200 plate reader with i-Control 1.4 software with the appropriate excitation/emission settings (fluorescein, 490 nm/535 nm; phycoeythrin, 535 nm/575 nm. Fluorescence data was plotted as a function of conjugate dilution. To compare results for additives tested in different experiments the data were transformed into a percentage of a control value (i.e. the signal for conjugate prepared in the absence of any test additive).
Reactions were carried out according to the manufacturer's standard protocol except that the additives were included at up to 50 mM concentration in conjugation reactions of Goat-anti-rabbit IgG using fluorescein Lightning-Link kit (product code 707-0010, Innova Biosciences, UK). Conjugates were tested according to the protocol described in Example 2.

[5] = Effect of additives on the thiolation reagent 2-iminothiolane (thiol release, DTNB, A405); details: 50 mM additive, pH 8.0, 30 minutes
Experimental: 20 μl of 2 mM 2-iminothiolane was added to each well and mixed quickly and the absorbance values were read at 405 nm every minute for 30 minutes using a Tecan Infinite M200 plate reader with i-Control 1.4 software. […] In control reaction, there is a steady linear increase in absorbance as the reagent is hydrolysed by water. […] The rising baseline can be attributed to the known sensitivity of 2-iminothiolane to hydrolysis at alkaline pH values.

Substance: Glycine
- % of Signal [1]: 94%
- interference in carbodiimide-mediated antibody-gold nanoparticle conjugation reaction [1]: no interference; also recorded: do not interfere; also recorded: does not
- ratio of moles dye to moles of protein versus control, fluorescein NHS ester [2]: substantial interference
- ratio of moles dye to moles of protein versus control, FITC [3]: significant interference
- interference in Lightning-Link fluorescein conjugation reaction [4]: significant interference
- release of thiols from 2-iminothiolane versus control [5]: rapid hydrolysis and ring opening; also recorded: reacts rapidly
